Experimental data reported in patent publication US9555029B2 (HIKMA PHARMACEUTICALS, priority 2013, dated 2017).
Where two headings read alike, the source gives them in different places.

Experiments:
[1] = Colchicine pharmacokinetics coadministered with voriconazole
[2] = Protocol: Safety was evaluated through assessment of adverse events, standard laboratory evaluations, physical examination (including vital signs) and ECG. Safety was determined by descriptive statistics.
The inhibitor dosage form was an oral 200 mg tablet of Diflucan® (fluconazole, from Pfizer).
The fluconazole trial differed from the Example 2 protocol as follows.

[3] = for AUCT/∞ / Kel / T1/2el: mean
[4] = cited from earlier work; for Kel / T1/2el: arithmetic mean; for AUCT / Cmax: geometric mean
[5] = cited from earlier work; for AUCT / Cmax: geometric mean
[6] = cited from earlier work; for Kel / T1/2el: arithmetic mean; for AUCT / Cmax: geometric mean; remark: listed apart in the source
[7] = cited from earlier work
[8] = Treatment-1 (day 1): colchicine 0.6 mg alone, fasted, voriconazole study, mean
[9] = Treatment-2 (day 9): colchicine 0.6 mg + voriconazole 200 mg after twice daily days 4-8, fasted, mean
[10] = of 12 subjects, colchicine + fluconazole
[11] = of 12 subjects, fluconazole study
[12] = Treatment-1 (day 1): colchicine 0.6 mg alone, fasted, propafenone study
[13] = Treatment-2 (day 9): colchicine 0.6 mg + propafenone 225 mg after twice daily days 4-8, fasted
[14] = coadministration with propafenone vs colchicine alone
[15] = Treatment-1: colchicine 0.6 mg alone (day 1, fasted), clarithromycin study
[16] = Treatment-2: colchicine 0.6 mg + clarithromycin 250 mg twice daily (days 22-29)
[17] = Treatment-1: colchicine 0.6 mg alone (day 1, fasted), ritonavir study, arithmetic mean
[18] = Treatment-1: colchicine 0.6 mg alone (day 1, fasted), ritonavir study
[19] = Treatment-2: colchicine 0.6 mg (day 19) + ritonavir 100 mg twice daily (days 15-19)
[20] = Treatment-1: colchicine 0.6 mg alone (day 1, fasted), diltiazem ER study
[21] = Treatment-2: colchicine 0.6 mg (day 21) + diltiazem ER 240 mg once daily (days 15-21)
[22] = colchicine coadministered with azithromycin
[23] = colchicine coadministered with clarithromycin
[24] = colchicine coadministered with cyclosporine
[25] = colchicine coadministered with diltiazem ER
[26] = colchicine coadministered with ketoconazole
[27] = colchicine coadministered with ritonavir
[28] = colchicine coadministered with verapamil ER

For COc1cc2c(c(OC)c1OC)-c1ccc(OC)c(=O)cc1[C@@H](NC(C)=O)CC2 [Colchicine, (S)N-(5,6,7,9-tetrahydro-1,2,3,10-tetramethoxy-9-oxobenzo[alpha]heptalen-7-yl)acetamide], the “AUCT/∞” value [1, 8] was 87.75%, the Kel [1, 8] was 0.0240 h⁻¹ and the T1/2el [1, 8] was 29.63 h. For the same molecule, the “AUCT/∞” value [1, 9] was 86.14%, the Kel [1, 9] was 0.0227 h⁻¹ and the T1/2el [1, 9] was 31.30 h. The “Decrease of colchicine Cmax” value ([1]; coadministration with voriconazole vs colchicine alone) was “about 20%”, the CL/F ([1]; male, human, in vivo, 0.6 mg) was 550 mL/min and the Tmax ([1]; male, human, in vivo, 0.6 mg) was 1.38 h. For the same molecule, the Vd/F ([1]; male, human, in vivo, 0.6 mg) was 1350 L, the AUC(0-t) ([1]; male, human, in vivo, 0.6 mg, AUCT GEOMETRIC LSMEANS, Treatment-1: colchicine 0.6 mg alone, voriconazole study) was 17.9 ng·h/mL and the AUC(0-t) ([1]; male, human, in vivo, 0.6 mg, AUCT, Treatment-1 (day 1): colchicine 0.6 mg alone, fasted, voriconazole study, mean) was 19.6 ng·h/mL. The AUC(0-inf) ([1]; male, human, in vivo, 0.6 mg, AUC∞ GEOMETRIC LSMEANS, Treatment-1: colchicine 0.6 mg alone, voriconazole study) was 20.5 ng·h/mL, the AUC(0-inf) ([1]; male, human, in vivo, 0.6 mg, AUC∞, Treatment-1 (day 1): colchicine 0.6 mg alone, fasted, voriconazole study, mean) was 22.4 ng·h/mL and the Cmax ([1]; male, human, in vivo, 0.6 mg, Cmax GEOMETRIC LSMEANS, Treatment-1: colchicine 0.6 mg alone, voriconazole study) was 2.3 ng/mL. For the same molecule, the Cmax ([1]; male, human, in vivo, 0.6 mg, Cmax, Treatment-1 (day 1): colchicine 0.6 mg alone, fasted, voriconazole study, mean) was 2.66 ng/mL, the AUC(0-t) ([1]; male, human, in vivo, AUCT GEOMETRIC LSMEANS, Treatment-2: colchicine 0.6 mg + voriconazole) was 19.5 ng·h/mL and the AUC(0-t) ([1]; male, human, in vivo, AUCT, Treatment-2 (day 9): colchicine 0.6 mg + voriconazole 200 mg after twice daily days 4-8, fasted, mean) was 20.7 ng·h/mL. For the same molecule, the AUC(0-inf) ([1]; male, human, in vivo, AUC∞ GEOMETRIC LSMEANS, Treatment-2: colchicine 0.6 mg + voriconazole) was 22.7 ng·h/mL, the AUC(0-inf) ([1]; male, human, in vivo, AUC∞, Treatment-2 (day 9): colchicine 0.6 mg + voriconazole 200 mg after twice daily days 4-8, fasted, mean) was 24.1 ng·h/mL and the Cmax ([1]; male, human, in vivo, Cmax GEOMETRIC LSMEANS, Treatment-2: colchicine 0.6 mg + voriconazole) was 1.83 ng/mL. For the same molecule, the Cmax ([1]; male, human, in vivo, Cmax, Treatment-2 (day 9): colchicine 0.6 mg + voriconazole 200 mg after twice daily days 4-8, fasted, mean) was 2.06 ng/mL, the “Total number of adverse events after Treatment-2” value ([2]; colchicine + fluconazole) was 3 and the “Number of adverse events requiring medication after Treatment-1” value ([2]; fluconazole study) was “None”. The “Number of serious adverse events or deaths” value ([2]; fluconazole study) was “None”, the “Total number of adverse events after Treatment-1” value ([2]; fluconazole study) was 7 and the “Number of subjects experiencing adverse events after Treatment-2” value [2, 10] was 3. The “Percent of subjects experiencing adverse events after Treatment-2” value [2, 10] was 25.0%, the “Number of subjects experiencing adverse events after Treatment-1” value [2, 11] was 3 and the “Percent of subjects experiencing adverse events after Treatment-1” value [2, 11] was 25.0%. The “AUCT/∞” value [3, 12] was 88.21%, the Kel [3, 12] was 0.0241 h⁻¹ and the T1/2el [3, 12] was 29.74 h. For the same molecule, the “AUCT/∞” value [3, 13] was 89.16%, the Kel [3, 13] was 0.0250 h⁻¹ and the T1/2el [3, 13] was 28.25 h. The “Tmax (median hours)” value ([3]; Treatment-2 (day 9): colchicine 0.6 mg + propafenone 225 mg after twice daily days 4-8, fasted, median) was 1.00 h, the “Increase of colchicine AUC” value [3, 14] was 1% and the “Increase of colchicine Cmax” value [3, 14] was 7%. The Kel [4, 15] was 0.1324 h⁻¹, the T1/2el [4, 15] was 8.89 h and the CLTOT/F [4, 15] was 46.8 L/h. The AUCT [4, 15] was 12,370 pg · h/mL, the Cmax [4, 15] was 2,840 pg/mL and the Kel [4, 16] was 0.0296 h⁻¹. For the same molecule, the T1/2el [4, 16] was 30.31 h, the CLTOT/F [4, 16] was 12.0 L/h and the AUCT [4, 16] was 41,950 pg · h/mL. For the same molecule, the Cmax [4, 16] was 8,440 pg/mL, the Kel [5, 17] was 0.1666 h⁻¹ and the T1/2el [5, 17] was 5.15 h. The CLTOT/F [5, 18] was 67.93 L/h, the AUCT [5, 18] was 8,410 pg · h/mL and the Cmax [5, 18] was 1,870 pg/mL. The T1/2el ([5]; Treatment-2: colchicine 0.6 mg (day 19) + ritonavir 100 mg twice daily (days 15-19), arithmetic mean) was 17.41 h, the CLTOT/F [5, 19] was 18.59 L/h and the AUCT [5, 19] was 29,050 pg · h/mL. For the same molecule, the Cmax [5, 19] was 4,990 pg/mL, the Kel [6, 20] was 0.1589 h⁻¹ and the T1/2el [6, 20] was 5.51 h. The CLTOT/F [6, 20] was 58.88 L/h, the AUCT [6, 20] was 10,040 pg · h/mL and the Cmax [6, 20] was 2,170 pg/mL. The Kel [6, 21] was 0.0838 h⁻¹, the T1/2el [6, 21] was 12.5 h and the CLTOT/F [6, 21] was 34.7 L/h. The AUCT [6, 21] was 12,730 pg · h/mL, the Cmax [6, 21] was 2,800 pg/mL and the “Number of 24 subjects with adverse events overall” value (“Number of 24 subjects” below) [7, 22] was 11. The “Percent of 24 subjects with adverse events overall” value (“Percent of 24 subjects” for short) [7, 22] was “(45.8) %”, the “Total number of adverse events” value [7, 22] was 27 and the “Number of 24 subjects” value [7, 23] was 14. For the same molecule, the “Percent of 24 subjects” value [7, 23] was “(58.3) %”, the “Total number of adverse events” value [7, 23] was 26 and the “Number of 24 subjects” value [7, 24] was 6. The “Percent of 24 subjects” value [7, 24] was “(25.0%)”, the “Total number of adverse events” value [7, 24] was 5 and the “Number of 24 subjects” value [7, 25] was 14. The “Percent of 24 subjects” value [7, 25] was “(58.3) %”, the “Total number of adverse events” value [7, 25] was 21 and the “Number of 24 subjects” value [7, 26] was 10. For the same molecule, the “Percent of 24 subjects” value [7, 26] was “(41.7) %”, the “Total number of adverse events” value [7, 26] was 11 and the “Number of 24 subjects” value [7, 27] was 5. The “Percent of 24 subjects” value [7, 27] was “(20.8) %”, the “Total number of adverse events” value [7, 27] was 8 and the “Number of 24 subjects” value [7, 28] was 14. The “Percent of 24 subjects” value [7, 28] was “(58.3) %” and the “Total number of adverse events” value [7, 28] was 22.
